Assay results from the Kinase Knowledgebase extract (Sharma et al. 2016).

Experiments:
PIK3CA (human) = PIK3CA (human) (UniProt P42336); assay: Assessment of PIK3CA Kinase Activity
PIK3CG (human) = PIK3CG (human) (UniProt P48736); assay: Assessment of PIK3CG Kinase Activity
PIK3CG (human), sequence (P48736 whole entry, looked up): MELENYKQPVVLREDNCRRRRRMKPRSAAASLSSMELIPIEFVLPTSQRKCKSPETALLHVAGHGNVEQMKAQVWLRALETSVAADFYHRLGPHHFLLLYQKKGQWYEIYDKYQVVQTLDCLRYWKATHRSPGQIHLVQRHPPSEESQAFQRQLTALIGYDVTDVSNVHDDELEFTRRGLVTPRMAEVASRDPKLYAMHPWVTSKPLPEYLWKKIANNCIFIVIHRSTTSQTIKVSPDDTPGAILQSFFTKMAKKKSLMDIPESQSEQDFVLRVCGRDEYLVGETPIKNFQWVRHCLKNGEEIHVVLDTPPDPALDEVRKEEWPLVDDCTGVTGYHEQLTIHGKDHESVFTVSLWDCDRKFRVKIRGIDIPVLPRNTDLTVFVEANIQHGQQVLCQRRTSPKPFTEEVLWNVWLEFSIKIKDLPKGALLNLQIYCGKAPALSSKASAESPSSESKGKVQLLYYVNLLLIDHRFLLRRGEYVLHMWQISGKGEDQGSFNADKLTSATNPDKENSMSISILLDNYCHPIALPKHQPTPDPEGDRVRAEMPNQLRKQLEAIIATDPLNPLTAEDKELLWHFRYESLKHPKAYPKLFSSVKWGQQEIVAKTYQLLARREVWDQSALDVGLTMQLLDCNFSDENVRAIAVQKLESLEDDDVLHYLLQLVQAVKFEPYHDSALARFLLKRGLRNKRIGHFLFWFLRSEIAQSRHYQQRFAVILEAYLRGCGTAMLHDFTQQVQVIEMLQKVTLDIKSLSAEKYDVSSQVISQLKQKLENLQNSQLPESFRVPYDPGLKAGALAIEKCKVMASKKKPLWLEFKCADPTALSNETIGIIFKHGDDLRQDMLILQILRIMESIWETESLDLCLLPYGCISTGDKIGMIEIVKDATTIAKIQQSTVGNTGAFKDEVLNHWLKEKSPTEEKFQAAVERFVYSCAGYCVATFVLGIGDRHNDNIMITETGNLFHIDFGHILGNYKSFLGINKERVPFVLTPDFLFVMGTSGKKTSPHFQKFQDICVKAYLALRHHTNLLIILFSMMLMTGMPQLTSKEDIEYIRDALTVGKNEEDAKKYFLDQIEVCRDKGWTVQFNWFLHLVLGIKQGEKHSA

PIK3CA (human), sequence (P42336 whole entry, looked up): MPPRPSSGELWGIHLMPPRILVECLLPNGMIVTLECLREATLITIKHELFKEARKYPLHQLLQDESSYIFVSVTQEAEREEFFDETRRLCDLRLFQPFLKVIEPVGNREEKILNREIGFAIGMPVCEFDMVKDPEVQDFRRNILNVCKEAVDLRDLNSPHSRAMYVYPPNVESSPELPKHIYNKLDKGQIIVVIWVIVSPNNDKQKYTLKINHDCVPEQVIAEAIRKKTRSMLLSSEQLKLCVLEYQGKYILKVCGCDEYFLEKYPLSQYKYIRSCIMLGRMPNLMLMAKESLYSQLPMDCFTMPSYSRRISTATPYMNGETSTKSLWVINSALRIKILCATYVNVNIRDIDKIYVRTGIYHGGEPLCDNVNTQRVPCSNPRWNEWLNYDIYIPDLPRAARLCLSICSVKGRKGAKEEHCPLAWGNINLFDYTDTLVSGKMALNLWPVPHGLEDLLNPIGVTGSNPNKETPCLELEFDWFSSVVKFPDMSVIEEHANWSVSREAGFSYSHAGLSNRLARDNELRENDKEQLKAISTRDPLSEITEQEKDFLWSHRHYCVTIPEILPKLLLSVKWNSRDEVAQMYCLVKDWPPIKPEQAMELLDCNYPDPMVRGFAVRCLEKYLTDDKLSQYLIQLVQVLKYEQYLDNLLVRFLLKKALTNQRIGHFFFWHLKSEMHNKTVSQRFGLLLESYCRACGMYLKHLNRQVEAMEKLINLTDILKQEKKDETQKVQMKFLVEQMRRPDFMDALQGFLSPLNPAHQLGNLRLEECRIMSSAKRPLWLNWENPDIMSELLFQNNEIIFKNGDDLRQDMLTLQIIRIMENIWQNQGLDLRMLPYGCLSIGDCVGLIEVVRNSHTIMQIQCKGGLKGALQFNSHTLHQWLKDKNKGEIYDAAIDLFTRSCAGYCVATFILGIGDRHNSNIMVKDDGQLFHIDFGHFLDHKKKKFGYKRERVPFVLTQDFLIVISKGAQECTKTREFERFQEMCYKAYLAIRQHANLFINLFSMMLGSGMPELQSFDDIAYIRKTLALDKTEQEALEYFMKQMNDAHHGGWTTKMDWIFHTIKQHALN

Compound | Ki (PIK3CA (human)) | Ki (PIK3CG (human))
CCOc1ncc(-c2ccc3nc(Nc4cnccn4)sc3n2)cc1OC | < 100 nM | < 100 nM
Nc1ccc(Nc2nc3ccc(-c4cncc(C(F)(F)F)c4)cc3s2)cn1 | – | < 100 nM
COc1cc(-c2ccc3nc(Nc4cccnc4)sc3n2)cnc1OC | < 100 nM | < 100 nM
COc1cc(-c2ccc3nc(Nc4nccc(C)n4)sc3c2)cnc1OC | < 100 nM | < 100 nM
COc1cncc(-c2ccc3nc(Nc4cccc(S(C)(=O)=O)c4)sc3c2)c1 | – | < 100 nM
CCn1cc(Nc2nc3ccc(-c4cncc(C(F)(F)F)c4)cc3s2)cn1 | < 100 nM | –
COc1cc(-c2ccc3nc(Nc4ccn(C)n4)sc3c2)cnc1OC | < 100 nM | < 100 nM
COc1cncc(-c2ccc3nc(Nc4cccc(C)n4)sc3c2)c1 | – | < 100 nM
COc1cncc(-c2ccc3nc(Nc4cncc(C)n4)sc3c2)c1 | < 100 nM | < 100 nM
COc1ncc(-c2ccc3nc(Nc4cnccn4)sc3n2)cc1OC(C)C | < 100 nM | < 100 nM
COc1cncc(-c2ccc3nc(Nc4ccc5c(c4)N(C(C)=O)CC5)sc3c2)c1 | – | < 100 nM
COc1cc(-c2ccc3nc(Nc4ccccn4)sc3c2)cnc1OC | < 100 nM | < 100 nM
CCOc1cc(-c2ccc3nc(Nc4cnccn4)sc3n2)cnc1OCC | < 100 nM | < 100 nM
COc1cncc(-c2ccc3nc(Nc4nncs4)sc3c2)c1 | – | < 100 nM
COc1cncc(-c2ccc3nc(Nc4cccnc4)sc3n2)c1 | – | < 100 nM
COc1cc(-c2ccc3nc(Nc4cncc(C)n4)sc3c2)cnc1OC | < 100 nM | < 100 nM
COc1cncc(-c2ccc3nc(Nc4ccn(C)n4)sc3c2)c1 | < 100 nM | < 100 nM
COc1cc(-c2ccc3nc(Nc4nnc(C)s4)sc3c2)cnc1OC | < 100 nM | < 100 nM
COCCn1cc(Nc2nc3ccc(-c4cncc(C(F)(F)F)c4)cc3s2)cn1 | < 100 nM | < 100 nM
COc1cc(-c2ccc3nc(Nc4cnccn4)sc3c2)cnc1OC | < 100 nM | < 100 nM
FC(F)(F)c1cncc(-c2ccc3nc(Nc4ccncn4)sc3c2)c1 | < 100 nM | < 100 nM
COc1cncc(-c2ccc3nc(Nc4cnccn4)sc3c2)c1 | < 100 nM | < 100 nM
COc1cc(-c2ccc3nc(Nc4ccncn4)sc3c2)cnc1OC | < 100 nM | < 100 nM
Cn1cc(Nc2nc3ccc(-c4cncc(C(F)(F)F)c4)cc3s2)cn1 | – | < 100 nM
COc1cncc(-c2ccc3nc(Nc4cc[nH]n4)sc3c2)c1 | < 100 nM | < 100 nM
CNC(=O)Cn1cc(Nc2nc3ccc(-c4cncc(C(F)(F)F)c4)cc3s2)cn1 | < 100 nM | < 100 nM
O=C(O)Cn1cc(Nc2nc3ccc(-c4cncc(C(F)(F)F)c4)cc3s2)cn1 | < 100 nM | < 100 nM
COc1cc(-c2ccc3nc(Nc4ncccn4)sc3c2)cnc1OC | < 100 nM | < 100 nM
COc1cncc(-c2ccc3nc(Nc4ccc(CC(N)=O)cc4)sc3c2)c1 | – | < 100 nM

Second part, the compound after the results:

Ki (PIK3CA (human)) | Ki (PIK3CG (human)) | Compound
< 100 nM | < 100 nM | FC(F)(F)c1cncc(-c2ccc3nc(Nc4cnn(CC5CCCO5)c4)sc3c2)c1 (centres undefined)
< 100 nM | – | FC(F)(F)c1cncc(-c2ccc3nc(Nc4cnccn4)sc3c2)c1
< 100 nM | < 100 nM | CCOc1ncc(-c2ccc3nc(Nc4cnccn4)sc3c2)cc1OC
< 100 nM | < 100 nM | COc1cncc(-c2ccc3nc(Nc4ccncn4)sc3c2)c1
< 100 nM | < 100 nM | COc1cc(-c2ccc3nc(Nc4cc[nH]n4)sc3c2)cnc1OC
< 100 nM | < 100 nM | COc1ncc(-c2ccc3nc(Nc4cnccn4)sc3c2)cc1OC(C)C
< 100 nM | < 100 nM | COc1cc(-c2ccc3nc(Nc4cnccn4)sc3c2)cnc1C
< 100 nM | < 100 nM | COc1cncc(Nc2nc3ccc(-c4cnc(OC)c(OC)c4)cc3s2)n1
< 100 nM | < 100 nM | CCOc1ncc(-c2ccc3nc(Nc4cccnc4)sc3n2)cc1OC
– | < 100 nM | CCc1ncc(-c2ccc3nc(Nc4cnccn4)sc3c2)cc1OC
– | < 100 nM | COc1cncc(-c2ccc3nc(Nc4ccc(N(C)C(C)=O)cc4)sc3c2)c1
< 100 nM | – | COc1cncc(-c2ccc3nc(Nc4cccc(CO)c4)sc3c2)c1
– | < 100 nM | CCOc1cc(-c2ccc3nc(Nc4cccnc4)sc3n2)cnc1OCC
– | < 100 nM | COc1cncc(-c2ccc3nc(Nc4nc(C)cs4)sc3c2)c1
– | < 100 nM | COc1cncc(-c2ccc3nc(Nc4cccc(NC(C)=O)c4)sc3c2)c1
– | < 100 nM | COc1cncc(-c2ccc3nc(Nc4cccnc4)sc3c2)c1
< 100 nM | < 100 nM | COc1cc(-c2ccc3nc(Nc4cccnc4)sc3c2)cnc1OC
< 100 nM | < 100 nM | CCOc1cc(-c2ccc3nc(Nc4cnccn4)sc3c2)cnc1OCC
– | < 100 nM | FC(F)(F)c1cncc(-c2ccc3nc(Nc4cccnc4)sc3n2)c1
– | < 100 nM | COc1cncc(-c2ccc3nc(Nc4ccccn4)sc3c2)c1

Ki (PIK3CA (human)) | Ki (PIK3CG (human)) | Compound
< 100 nM | < 100 nM | COc1cncc(-c2ccc3nc(Nc4ccc5nc[nH]c5c4)sc3c2)c1
< 100 nM | < 100 nM | COc1cncc(-c2ccc3nc(Nc4ccc(C)nn4)sc3c2)c1
– | < 100 nM | CCN(CC)C(=O)c1cccc(Nc2nc3ccc(-c4cncc(OC)c4)cc3s2)c1
< 100 nM | < 100 nM | CCCn1ccc(Nc2nc3ccc(-c4cnc(OC)c(OC)c4)cc3s2)n1
– | < 100 nM | CCCCNS(=O)(=O)c1cccc(Nc2nc3ccc(-c4cncc(OC)c4)cc3s2)c1
< 100 nM | < 100 nM | CCOc1cncc(Nc2nc3ccc(-c4cnc(OC)c(OC)c4)cc3s2)n1
< 100 nM | < 100 nM | CCOc1cc(-c2ccc3nc(Nc4cnccn4)sc3c2)cnc1OC
– | < 100 nM | CNC(=O)Cc1ccc(Nc2nc3ccc(-c4cncc(OC)c4)cc3s2)cc1
< 100 nM | < 100 nM | COc1cncc(-c2ccc3nc(Nc4nccs4)sc3c2)c1
< 100 nM | < 100 nM | COc1cc(-c2ccc3nc(Nc4cnccn4)sc3c2)cnc1N
< 100 nM | < 100 nM | COc1cc(-c2ccc3nc(Nc4ncc(C)s4)sc3c2)cnc1OC
– | < 100 nM | Cc1ccc(Nc2nc3ccc(-c4cncc(C(F)(F)F)c4)cc3s2)nn1
– | < 100 nM | COc1cc(-c2ccc3nc(Nc4cnccn4)sc3n2)cnc1OC
< 100 nM | < 100 nM | COc1cccc(Nc2nc3ccc(-c4cnc(OC)c(OC)c4)cc3s2)n1
< 100 nM | < 100 nM | COc1cc(-c2ccc3nc(Nc4cccc(C)n4)sc3c2)cnc1OC
< 100 nM | – | CCN(CC)C(=O)c1cccc(Nc2nc3ccc(-c4cncc(OC)c4)cc3s2)n1
< 100 nM | < 100 nM | COc1ncc(-c2ccc3nc(Nc4cccnc4)sc3n2)cc1OC(C)C
– | < 100 nM | COc1cncc(-c2ccc3nc(Nc4ccc(N)cc4)sc3c2)c1
– | < 100 nM | COc1cncc(-c2ccc3nc(Nc4ccc(Cl)nn4)sc3c2)c1
